Experimental data reported in patent US20260258064A1 (SIRONAX LTD., priority 2023, published 2026).

biological target: T1, SARM1 (50-724) (Homo sapiens, UniProt Q6SZW1); test: SARM1 (50-724) enzymatic assay (LC-MS/MS); format: biochemical; details: Purified SARM1 (50-724) 2 nM, NMN as activator, NAD+ as substrate, 1 h at room temperature, read-out: IC50 (SARM1 inhibitory activity)
T1 construct: Purified SARM1 (50-724) with a final concentration of 2 nM was pre-incubated with a test compound
T1 sequence (Q6SZW1 50-724): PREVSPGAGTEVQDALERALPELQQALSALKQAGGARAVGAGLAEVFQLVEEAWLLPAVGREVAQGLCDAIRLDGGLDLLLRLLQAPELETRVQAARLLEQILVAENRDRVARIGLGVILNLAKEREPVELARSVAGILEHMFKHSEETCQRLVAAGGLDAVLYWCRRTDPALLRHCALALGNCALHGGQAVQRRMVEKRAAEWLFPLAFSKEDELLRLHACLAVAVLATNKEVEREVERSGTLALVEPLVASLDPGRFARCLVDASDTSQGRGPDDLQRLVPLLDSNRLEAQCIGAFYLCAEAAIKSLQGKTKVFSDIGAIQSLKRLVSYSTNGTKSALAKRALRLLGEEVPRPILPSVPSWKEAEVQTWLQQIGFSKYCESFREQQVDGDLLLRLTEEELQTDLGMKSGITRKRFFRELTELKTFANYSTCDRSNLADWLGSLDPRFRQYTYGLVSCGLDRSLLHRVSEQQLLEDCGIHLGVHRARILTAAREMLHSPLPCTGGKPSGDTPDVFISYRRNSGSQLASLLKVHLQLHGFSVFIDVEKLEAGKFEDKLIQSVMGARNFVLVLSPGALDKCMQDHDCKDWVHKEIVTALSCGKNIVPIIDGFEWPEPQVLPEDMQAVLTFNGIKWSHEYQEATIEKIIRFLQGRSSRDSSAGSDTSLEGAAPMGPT
In short: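 Human SARM1 (50-724), 2 nM, pre-incubated 15 min at room temperature with compound in Dulbecco's PBS. Reaction started with 200 µM NMN (activator) plus […] NAD^+ substrate, run 1 h at room temperature, quenched with 70% acetonitrile. Turnover quantified by LC-MS/MS; IC50 reported.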

Row | IC50 | Structure (SMILES)
1 | ≤ 100 nM | NC(=O)Cc1nnc(-c2nc3cc(C(F)(F)F)ccc3[nH]2)n1-c1cccc(Cl)c1Cl [Example 122, 2-[4-(2,3-Dichlorophenyl)-5-[5-(trifluoromethyl)-1H-benzimidazol-2-yl]-1,2,4-triazol-3-yl]acetamide]
2 | ≤ 100 nM | CC1(c2ccc3[nH]c(-c4nncn4-c4cccc(F)c4Cl)nc3c2)CC(O)C1 (stereo not shown) [Compound 191, 3-(2-(4-(2-chloro-3-fluorophenyl)-4H-1,2,4-triazol-3-yl)-1H-benzo[d]imidazol-5-yl)-3-methylcyclobutan-1-ol]
3 | > 1000 nM | FC(F)(F)c1ccc2[nH]c([C@H]3COC[C@H]3c3ccccc3)nc2c1 (single isomer, unassigned) [Compound 351]
4 | ≤ 100 nM | CN(CC(F)F)c1cc(F)c2[nH]c(-c3nncn3-c3cnccc3C(F)(F)F)nc2c1 [Compound 318, N-(2,2-difluoroethyl)-7-fluoro-N-methyl-2-(4-(4-(trifluoromethyl)pyridin-3-yl)-4H-1,2,4-triazol-3-yl)-1H-benzo[d]imidazol-5-amine]
5 | ≤ 100 nM | NC(=O)COc1ccc(OC(F)(F)F)c(-n2cnnc2-c2nc3cc(C(F)(F)F)ccc3[nH]2)c1 [Compound 249, 2-(4-(trifluoromethoxy)-3-(3-(5-(trifluoromethyl)-1H-benzo[d]imidazol-2-yl)-4H-1,2,4-triazol-4-yl)phenoxy)acetamide]
6 | ≤ 100 nM | FC(F)(F)Oc1ccccc1-n1cnnc1-c1nc2cc(C(F)(F)F)ccc2[nH]1 [Compound 160]
7 | ≤ 100 nM | Oc1cc(F)c(Cl)c(-n2cnnc2-c2nc3cc(C(F)(F)F)cc(F)c3[nH]2)c1 [Compound 206, 4-chloro-3-fluoro-5-(3-(7-fluoro-5-(trifluoromethyl)-1H-benzo[d]imidazol-2-yl)-4H-1,2,4-triazol-4-yl)phenol]
8 | ≤ 100 nM | CC(C)(C(N)=O)c1ccc2[nH]c(-c3nncn3-c3cccc(Cl)c3Cl)nc2c1 [Example 107]
9 | ≤ 100 nM | Fc1ccc(OC(F)(F)F)c(-n2cnnc2-c2nc3cc(C(F)(F)F)cc(F)c3[nH]2)c1 [Compound 213, 7-fluoro-2-(4-(5-fluoro-2-(trifluoromethoxy)phenyl)-4H-1,2,4-triazol-3-yl)-5-(trifluoromethyl)-1H-benzo[d]imidazole]
10 | ≤ 100 nM | Fc1cc(C(F)(F)F)cc2nc(-c3nnc(CC(F)F)n3-c3cnccc3C(F)(F)F)[nH]c12 [Compound 317, 2-(5-(2,2-difluoroethyl)-4-(4-(trifluoromethyl)pyridin-3-yl)-4H-1,2,4-triazol-3-yl)-7-fluoro-5-(trifluoromethyl)-1H-benzo[d]imidazole]
11 | > 1000 nM | FC(F)(F)c1cc2cc(-c3nncn3-c3cnccc3C(F)(F)F)[nH]c2cn1 [Compound 299, 5-(trifluoromethyl)-2-(4-(4-(trifluoromethyl)pyridin-3-yl)-4H-1,2,4-triazol-3-yl)-1H-pyrrolo[2,3-c]pyridine]
12 | ≤ 100 nM | C#Cc1cc(-n2cnnc2-c2nc3cc(C(F)(F)F)ccc3[nH]2)c(OC(F)(F)F)cn1 [Compound 226, 2-(4-(2-ethynyl-5-(trifluoromethoxy)pyridin-4-yl)-4H-1,2,4-triazol-3-yl)-5-(trifluoromethyl)-1H-benzo[d]imidazole]
13 | 100 to 500 nM | Oc1cc(-c2ccccc2Cl)c(-c2nc3cc(C(F)(F)F)ccc3[nH]2)nn1 [Compound 406, 5-(2-chlorophenyl)-6-(5-(trifluoromethyl)-1H-benzo[d]imidazol-2-yl)pyridazin-3-ol]
14 | ≤ 100 nM | NC(=O)C1(c2ccc3[nH]c(-c4nncn4-c4ccc(F)c(F)c4Cl)nc3c2)CC1 [Compound 171, 1-(2-(4-(2-chloro-3,4-difluorophenyl)-4H-1,2,4-triazol-3-yl)-1H-benzo[d]imidazol-5-yl)cyclopropane-1-carboxamide]
15 | ≤ 100 nM | Cn1cc(OC(F)(F)F)c(-n2cnnc2-c2nc3cc(C4CC4)cc(F)c3[nH]2)cc1=O [Compound 353, 4-(3-(5-cyclopropyl-7-fluoro-1H-benzo[d]imidazol-2-yl)-4H-1,2,4-triazol-4-yl)-1-methyl-5-(trifluoromethoxy)pyridin-2(1H)-one]
16 | 100 to 500 nM | FC(F)(F)c1ccc2[nH]c(-c3nocc3-c3cccc(Cl)c3Cl)nc2c1 [Compound 322, 4-(2,3-dichlorophenyl)-3-(5-(trifluoromethyl)-1H-benzo[d]imidazol-2-yl)isoxazole]

Row | IC50 | Structure (SMILES)
17 | 100 to 500 nM | CN1CCC(C)(c2ccc3[nH]c(-c4nncn4-c4ccc(F)c(F)c4Cl)nc3c2)C1=O (stereo not shown) [Compound 165, 3-(2-(4-(2-chloro-3,4-difluorophenyl)-4H-1,2,4-triazol-3-yl)-1H-benzo[d]imidazol-5-yl)-1,3-dimethylpyrrolidin-2-one]
18 | 100 to 500 nM | Fc1cccc(-n2c(CCc3nccs3)nnc2-c2nc3cc(C(F)(F)F)ccc3[nH]2)c1Cl [Compound 419, 2-(2-(4-(2-chloro-3-fluorophenyl)-5-(5-(trifluoromethyl)-1H-benzo[d]imidazol-2-yl)-4H-1,2,4-triazol-3-yl)ethyl)thiazole]
19 | ≤ 100 nM | Fc1c(C2CC2)cc(F)c2[nH]c(-c3nncn3-c3cnccc3C(F)(F)F)nc12 [Compound 300, 5-cyclopropyl-4,7-difluoro-2-(4-(4-(trifluoromethyl)pyridin-3-yl)-4H-1,2,4-triazol-3-yl)-1H-benzo[d]imidazole]
20 | 100 to 500 nM | Cn1cc(-c2cnccc2C(F)(F)F)c(-c2nc3cc(C(F)(F)F)c(Cl)cc3[nH]2)cc1=O [Compound 389, 4-(5-chloro-6-(trifluoromethyl)-1H-benzo[d]imidazol-2-yl)-1-methyl-4′-(trifluoromethyl)-[3,3′-bipyridin]-6(1H)-one]
21 | 100 to 500 nM | FC(F)(F)c1ccc2[nH]c(-c3nncn3-c3cn4nccc4cc3C(F)(F)F)nc2c1 [Compound 311, 5-(trifluoromethyl)-2-(4-(5-(trifluoromethyl)pyrazolo[1,5-a]pyridin-6-yl)-4H-1,2,4-triazol-3-yl)-1H-benzo[d]imidazole]
22 | ≤ 100 nM | Fc1cc(C2CC2C(F)F)cc2nc(-c3nncn3-c3cnccc3C(F)(F)F)[nH]c12 (stereo not shown) [Compound 339, 5-(2-(difluoromethyl)cyclopropyl)-7-fluoro-2-(4-(4-(trifluoromethyl)pyridin-3-yl)-4H-1,2,4-triazol-3-yl)-1H-benzo[d]imidazole]
23 | 500 to 1000 nM | FC(F)(F)c1ccc2[nH]c(-c3n[nH]nc3-c3cccc(Cl)c3Cl)nc2c1 [Compound 274, 2-(5-(2,3-dichlorophenyl)-2H-1,2,3-triazol-4-yl)-5-(trifluoromethyl)-1H-benzo[d]imidazole]
24 | ≤ 100 nM | CC1(c2ccc3[nH]c(-c4nncn4-c4cccc(Cl)c4Cl)nc3c2)CCO1 (stereo not shown) [Compound 154, 2-(4-(2,3-dichlorophenyl)-4H-1,2,4-triazol-3-yl)-5-(2-methyloxetan-2-yl)-1H-benzo[d]imidazole]
25 | ≤ 100 nM | FC(F)(F)c1ccc2[nH]c(-c3nncn3-c3cccc(Cl)c3Br)nc2c1 [Example 119]
26 | ≤ 100 nM | CC1(C)CC1c1cc(F)c2[nH]c(-c3nncn3-c3cnccc3C(F)(F)F)nc2c1 (stereo not shown) [Compound 347, 5-(2,2-dimethylcyclopropyl)-7-fluoro-2-(4-(4-(trifluoromethyl)pyridin-3-yl)-4H-1,2,4-triazol-3-yl)-1H-benzo[d]imidazole]
27 | 100 to 500 nM | Clc1cccc(-n2cnnc2-c2nc3cc(C4COC4)ccc3[nH]2)c1Cl [Example 55, 2-(4-(2,3-dichlorophenyl)-4H-1,2,4-triazol-3-yl)-5-(oxetan-3-yl)-1H-benzo[d]imidazole]
28 | ≤ 100 nM | CC(Cc1nccs1)c1cc(F)c2[nH]c(-c3nncn3-c3cnccc3C(F)(F)F)nc2c1 (stereo not shown) [Compound 465, 2-(2-(7-fluoro-2-(4-(4-(trifluoromethyl)pyridin-3-yl)-4H-1,2,4-triazol-3-yl)-1H-benzo[d]imidazol-5-yl)propyl)thiazole]
29 | ≤ 100 nM | FC(F)(F)Oc1ccc(OC2CC2)cc1-n1cnnc1-c1nc2cc(C(F)(F)F)ccc2[nH]1 [Compound 275, 2-(4-(5-cyclopropoxy-2-(trifluoromethoxy)phenyl)-4H-1,2,4-triazol-3-yl)-5-(trifluoromethyl)-1H-benzo[d]imidazole]
30 | 100 to 500 nM | Clc1cccc(-n2cnnc2-c2nc3cc(-c4cnn[nH]4)ccc3[nH]2)c1Cl [Example 56, 2-(4-(2,3-dichlorophenyl)-4H-1,2,4-triazol-3-yl)-5-(1H-1,2,3-triazol-5-yl)-1H-benzo[d]imidazole]
31 | ≤ 100 nM | Nc1nnc(-c2nc3cc(C(F)(F)F)ccc3[nH]2)n1-c1cccc(F)c1Cl [Compound 396, 4-(2-chloro-3-fluorophenyl)-5-(5-(trifluoromethyl)-1H-benzo[d]imidazol-2-yl)-4H-1,2,4-triazol-3-amine]
